Laboratory results taken from patent US20210052741A1, “GENE THERAPY METHODS AND COMPOSITIONS USING AUXOTROPHIC REGULATABLE CELLS” (AUXOLYTIC LTD, priority 2018, published 2021).
Values joined by “and” are separate entries in the source; they are usually repeats but may differ in a detail not shown here. Equal entries are not always repeated.

Columns and labels:
Assay type in all cases: cell-based, human
Mock T cells = assay: 5-FOA selection, cell counts after 4 days; settings: for Average of cells per volume unit / Average number of cells per volume unit: Mock; for Average of cells per volume unit: 4 days in 5-FOA without serum; for Average number of cells per volume unit: 4 days in 5-FOA
Method: (§1) 5-FOA selects for uracil auxotrophic cells in other organisms (e.g. Boeke et al. 1984, Mol. Gen. Genet. 197(2):345-6), which is hereby incorporated by reference in its entirety). To investigate the potential utility of 5-FOA for the selection of uracil auxotrophs among human cells, the UMPS gene was targeted in human T cells by Cas9-gRNA complex electroporation followed by recovery (as shown in Example 2) followed by an assay of resistance to 5-FOA treatment (FIG. 3A). Cells were grown in 5-FOA and a variety of combinations of serum and uracil sources for 4 days before cell counting was performed.

UMPS-7 targeted T cells = assay: 5-FOA selection, cell counts after 4 days; settings: for Average of cells per volume unit: UMPS-7, 4 days in 5-FOA without serum; for Average number of cells per volume unit: UMPS-7, 4 days in 5-FOA
Method: as §1

UMPS^KO/KO hESCs = assay: Auxotrophy assay with different uridine concentrations; settings: for Viable cell counts: day 4 after seeding
Method: The UMPS locus was disrupted in the hESCs by electroporation of Cas9 RNP and selection of a clone with InDels in exon 1 as evaluated by amplification and Sanger sequencing of the genomic locus. For gene editing, hESCs were treated with 10 μm ROCK inhibitor (Y-27632) for 24 hours before electroporation. Cells at 70-80% confluence were harvested with ACCUTASE® solution (Life Technologies). 500,000 cells were used per reaction with a SpCas9 concentration of 150 μg/mL (Integrated DNA Technologies) and a Cas9:sgRNA molar ratio of 1:3 and electroporation performed in P3 Primary Cell solution (Lonza) in 16-well NUCLEOCUVETTE™ Strips in the 4D NUCLEOFECTOR system (Lonza). Immediately after electroporation, cells were transferred into one well of a […]® protein mixture (Corning, Inc.)-coated 24 well plate containing 500 μl of mTeSR™ media ([…] Technologies) with 10 μM Y-27632. Media was changed 24 hours after editing and Y-27632 was removed 48 hours after.
An auxotrophy assay was performed over four days with different concentrations of uridine. Microscope photos of wells were taken on day 4 after seeding UMPS^KO/KO hESCs at similar densities and culturing in the presence of different uridine concentrations. […] Quantification of viable cells on day 4 after seeding to evaluate the effect of different uridine concentrations is shown in Table 15.

UMPS-WT Nalm6 cells = assay: Growth curves of Nalm6 cells with uridine; settings: for Cell counts, Day 0 / Cell counts, Day 1 / Cell counts, Day 2 / Cell counts, Day 3 / Cell counts, Day 4 / Cell counts, Day 5 / Cell counts, Day 6 / Cell counts, Day 7: UMPS-WT
Method: (§2) The same experiment was performed with Nalm6 cells and a similar dependency on the uridine concentration in the culture was observed that was not visible for cells with intact UMPS. Table 25 provides data of growth curves of UMPS^KO/KO Nalm6 cells cultured with different uridine concentrations. No difference was observed between the groups receiving uridine supplement treatment and those not for wild-type cells.

UMPS^KO/KO Nalm6 cells = assay: Growth curves of Nalm6 cells with uridine; settings: for Cell counts, Day 0 / Cell counts, Day 1 / Cell counts, Day 2 / Cell counts, Day 3 / Cell counts, Day 4 / Cell counts, Day 5 / Cell counts, Day 6 / Cell counts, Day 7: UMPS^KO/KO
Method: as §2

[1] = system: UMPS^KO/KO/GFP^+ K562 cells mixed with UMPS^WT/WT K562 cells; assay: 5-FOA resistance in mixed K562 culture; settings: for Percentages of GFP+ cells, Day 1 / Percentages of GFP+ cells, Day 2 / Percentages of GFP+ cells, Day 3 / Percentages of GFP+ cells, Day 4 / Percentages of GFP+ cells, Day 6 / Percentages of GFP+ cells, Day 8: with Uridine
Method: To determine the resistance of UMP S knockout cells to 5-FOA the purified uMPS^KO/KO/GFP^+ K562 cells were mixed at an equal ratio with UMPS^wT/WT/GFP-negative K562 cells. The cells were cultured in the presence of Uridine and different concentrations of 5-FOA (FIG. 6F).

## O=c1ccn([C@@H]2O[C@H](CO)[C@@H](O)[C@H]2O)c(=O)[nH]1 [Uridine]
Mock T cells; with substrate
  Average of cells per volume unit: 53052.43 cells per volume unit
Mock T cells; mock treated cells
  survival in 5-FOA compared to control: improved the survival
UMPS-7 targeted T cells; UMPS targeted cells
  survival in 5-FOA compared to control: improved the survival
UMPS-7 targeted T cells; with substrate
  Average of cells per volume unit: 77755.72 cells per volume unit
UMPS^KO/KO hESCs; 2.5-250 μg/ml uridine
  proliferation (microscope photos, day 4): proliferated
UMPS^KO/KO hESCs; uridine 2.5 μg/ml
  Viable cell counts: 31040 and 38065 and 45189
UMPS^KO/KO hESCs; uridine 25 μg/ml
  Viable cell counts: 31810 and 39635 and 36283
UMPS^KO/KO hESCs; uridine 250 μg/ml
  Viable cell counts: 19147 and 31050 and 33955
UMPS-WT Nalm6 cells; 2.5 ug/ml uridine
  Cell counts, Day 0: 20052 and 19661 and 21142
  Cell counts, Day 1: 35088 and 34130 and 28986
  Cell counts, Day 2: 67340 and 38314 and 62598
  Cell counts, Day 3: 156019 and 153257 and 137812
  Cell counts, Day 4: 244368 and 225750 and 338624
  Cell counts, Day 5: 923391 and 1119256 and 1148582
  Cell counts, Day 6: 2017336 and 3269476
  Cell counts, Day 7: 3869992 and 6117085 and 6538953
UMPS-WT Nalm6 cells; 25 μg/ml uridine
  Cell counts, Day 0: 27548 and 19505 and 36496
  Cell counts, Day 1: 31847 and 39683 and 40000
  Cell counts, Day 2: 70922 and 70175 and 68027
  Cell counts, Day 3: 214190 and 194185 and 174292
  Cell counts, Day 4: 447240 and 311891 and 376249
  Cell counts, Day 5: 1413856 and 1173622 and 1216000
  Cell counts, Day 6: 3792593 and 2708995
  Cell counts, Day 7: 6320988 and 5746352 and 7585185
UMPS-WT Nalm6 cells; 250 μg/ml uridine
  Cell counts, Day 0: 17980 and 24390
  Cell counts, Day 1: 33784 and 40000
  Cell counts, Day 2: 59524 and 58737
  Cell counts, Day 3: 167715 and 160160
  Cell counts, Day 4: 303894 and 213547
  Cell counts, Day 5: 1163678 and 1115507
  Cell counts, Day 6: 3511660 and 3058542
  Cell counts, Day 7: 7293447
UMPS-WT Nalm6 cells; wild-type cells
  growth with vs without uridine supplement: No difference
UMPS^KO/KO Nalm6 cells; 2.5 μg/ml uridine
  Cell counts, Day 0: 20121 and 29155 and 28090
  Cell counts, Day 1: 42194 and 38023 and 40650
  Cell counts, Day 2: 69808 and 88300 and 87146
  Cell counts, Day 3: 70287 and 70547 and 78663
  Cell counts, Day 4: 80625 and 81737 and 79012
  Cell counts, Day 5: 193482 and 188952 and 193913
  Cell counts, Day 6: 380782 and 383866 and 377748
  Cell counts, Day 7: 755497 and 796763 and 793429
UMPS^KO/KO Nalm6 cells; 25 μg/ml uridine
  Cell counts, Day 0: 14984 and 18952 and 14400
  Cell counts, Day 1: 21277 and 25189 and 19688
  Cell counts, Day 2: 69085 and 68027 and 71301
  Cell counts, Day 3: 142944 and 176018 and 189125
  Cell counts, Day 4: 388585 and 324708 and 395062
  Cell counts, Day 5: 1624178 and 1360329
  Cell counts, Day 6: 3646724 and 3386243 and 3792593
  Cell counts, Day 7: 7293447 and 5746352 and 6538953
UMPS^KO/KO Nalm6 cells; 250 μg/ml uridine
  Cell counts, Day 0: 20704 and 24510 and 29762
  Cell counts, Day 1: 37175 and 35461 and 30769
  Cell counts, Day 2: 101781 and 106667 and 112045
  Cell counts, Day 3: 210805 and 265340 and 257649
  Cell counts, Day 4: 551249 and 564374
  Cell counts, Day 5: 2072099 and 2343280 and 1844675
  Cell counts, Day 6: 3792593 and 4514991 and 4122383
  Cell counts, Day 7: 7585185 and 6320988 and 7901235
UMPS^KO/KO Nalm6 cells; groups supplemented with uridine, especially 25 and 250 μg/ml
  growth: Significantly greater growth

## O=C(O)c1[nH]c(=O)[nH]c(=O)c1F [5-FOA, 5-fluoroorotic acid]
Mock T cells; No UMP/Uridine
  Average of cells per volume unit: 12279.07 cells per volume unit and 16467.39 cells per volume unit
Mock T cells; No Serum, No UMP/Uridine
  Average number of cells per volume unit: 13947.04 cells per volume unit
Mock T cells; With Serum, No UMP/Uridine
  Average number of cells per volume unit: 13403.28 cells per volume unit
UMPS-7 targeted T cells; No UMP/Uridine
  Average of cells per volume unit: 52156.98 cells per volume unit and 67438.73 cells per volume unit
UMPS-7 targeted T cells; No Serum, No UMP/Uridine
  Average number of cells per volume unit: 56895.21 cells per volume unit
UMPS-7 targeted T cells; With Serum, No UMP/Uridine
  Average number of cells per volume unit: 54282.95 cells per volume unit
[1]; 10 ug/ml 5-FOA
  Number of GFP + cells per μl, Day 1: 87013.04 cells per μl
  Number of GFP + cells per μl, Day 2: 163245.74 cells per μl
  Number of GFP + cells per μl, Day 4: 569281.05 cells per μl
  Number of GFP + cells per μl, Day 6: 550780.31 cells per μl
  Number of GFP + cells per μl, Day 8: 719624.13 cells per μl
  Percentages of GFP+ cells, Day 1: 45.4% and 48.5%
  Percentages of GFP+ cells, Day 2: 54.7% and 56.8%
  Percentages of GFP+ cells, Day 3: 65.6% and 64.0%
  Percentages of GFP+ cells, Day 4: 64.8% and 69.7%
  Percentages of GFP+ cells, Day 6: 79.1% and 76.5%
  Percentages of GFP+ cells, Day 8: 85.0% and 79.8%
[1]; 100 ug/ml 5-FOA
  Number of GFP + cells per μl, Day 1: 115272.35 cells per μl
  Number of GFP + cells per μl, Day 2: 106377.73 cells per μl
  Number of GFP + cells per μl, Day 4: 376993.53 cells per μl
  Number of GFP + cells per μl, Day 6: 501940.62 cells per μl
  Number of GFP + cells per μl, Day 8: 693093.53 cells per μl
  Percentages of GFP+ cells, Day 1: 52.6% and 48.9%
  Percentages of GFP+ cells, Day 2: 67.1% and 64.2%
  Percentages of GFP+ cells, Day 3: 79.5% and 71.4%
  Percentages of GFP+ cells, Day 4: 85.2% and 74.4%
  Percentages of GFP+ cells, Day 6: 92.1% and 86.2%
  Percentages of GFP+ cells, Day 8: 92.8% and 82.8%
[1]; 1000 ug/ml 5-FOA
  Number of GFP + cells per μl, Day 1: 75925.72 cells per μl
  Number of GFP + cells per μl, Day 2: 79080.77 cells per μl
  Number of GFP + cells per μl, Day 4: 151010.55 cells per μl
  Number of GFP + cells per μl, Day 6: 217794.10 cells per μl
  Number of GFP + cells per μl, Day 8: 339282.35 cells per μl
  Percentages of GFP+ cells, Day 1: 51.9% and 49.4%
  Percentages of GFP+ cells, Day 2: 65.0% and 58.9%
  Percentages of GFP+ cells, Day 3: 72.9% and 66.9%
  Percentages of GFP+ cells, Day 4: 82.0% and 77.7%
  Percentages of GFP+ cells, Day 6: 92.6% and 90.5%
  Percentages of GFP+ cells, Day 8: 90.1% and 75.7%
[1]; 10 and 100 μg/ml 5-FOA
  proliferation of UMPS knockout cells in 5-FOA: proliferated well
[1]; all 5-FOA concentrations used
  fraction of UMPS^KO/KO cells: increased over time
[1]; highest concentration (1000 ug/ml)
  cell growth of UMPS knockout cells in 5-FOA: slowed their cell growth down
